One test deals with T1, thromboxane synthetase (Homo sapiens, UniProt P24557).
T1 construct: endogenous in cells; host or cells: human platelets (platelet-rich plasma passed through Sepharose 2B)
T1 sequence (P24557 1-533): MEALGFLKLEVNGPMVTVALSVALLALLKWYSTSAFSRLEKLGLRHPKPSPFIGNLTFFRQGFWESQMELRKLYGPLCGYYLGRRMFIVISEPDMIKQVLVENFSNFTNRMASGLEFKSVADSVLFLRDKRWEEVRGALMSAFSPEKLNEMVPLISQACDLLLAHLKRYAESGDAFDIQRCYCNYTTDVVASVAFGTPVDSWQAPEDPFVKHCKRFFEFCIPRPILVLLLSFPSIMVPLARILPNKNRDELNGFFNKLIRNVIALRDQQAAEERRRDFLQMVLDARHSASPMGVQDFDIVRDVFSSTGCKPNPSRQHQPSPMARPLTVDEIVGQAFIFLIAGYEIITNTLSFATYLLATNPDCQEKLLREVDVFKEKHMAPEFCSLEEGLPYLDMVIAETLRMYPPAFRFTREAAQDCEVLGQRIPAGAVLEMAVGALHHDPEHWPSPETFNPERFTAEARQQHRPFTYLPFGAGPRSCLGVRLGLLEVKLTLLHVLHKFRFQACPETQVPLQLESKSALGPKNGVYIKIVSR
In words: Inhibitory effect on thromboxane synthetase (TXB2 formation in human platelet suspension). Particulars: 10 minutes at ambient temperature, then 14C-labelled arachidonic acid 10 minutes, read-out: Inhibition of thromboxane synthetase IC50. The class given is cell-based. As for the experimental part: Determining the Inhibitory Effect on Thromboxane Synthetase
Venous human blood is anti-coagulated with 13 mM Na3 citrate and centrifuged for 10 minutes at 170×g. The supernatant platelet-rich plasma is passed through a Sepharose 2B column in order to remove the plasma proteins. Aliquots of the platelet suspension obtained are incubated with the test substance or with a solvent as control for 10 minutes at ambient temperature and after the addition of ^14 C-labelled arachidonic acid incubation is continued for a further 10 minutes. After this has been stopped with 50 μl of citric acid, extraction is carried out 3 times with 500 μl of ethyl acetate and the combined extracts are distilled off with nitrogen. The residue is taken up in ethyl acetate, placed on TLC film and separated with chloro-form:methanol:glacial acetic acid:water (90:8:1:0.8, v/v/v/v). The dried TLC films are placed on X-ray film for 3 days, the autoradiograms were developed and the active zones were marked on the film using the autoradiograms. After cutting out, the activity is measured in a scintillation counter and the inhibition of the formation of TXB2 is calculated. The IC50 is determined by linear interpolation.

In another test the test system is thrombocyte aggregation. In words: Antithrombotic activity: collagen-induced aggregation in platelet-rich plasma (Born and Cross). Particulars: Homo sapiens, 10 min; platelet-rich plasma from healthy volunteers; incubated 10 minutes at 37° C.; 50% change in optical density; read-out: Inhibition of collagen-induced aggregation EC50. The class given is cell-based. The method, then:
The thrombocyte aggregation is measured using the method of Born and Cross (J. Physiol. 170, 397 (1964)) in platelet-rich plasma taken from healthy volunteers. To inhibit coagulation, the blood is mixed with 3.14% strength sodium citrate in a ratio by volume of 1:10.
Collagen-induced Aggregation
The pattern of decrease in the optical density of the platelet suspension is photometrically measured and recorded after the addition of the aggregation-triggering substance. The rate of aggregation is concluded from the angle of inclination of the density curve. The point on the curve where there is greatest light transmittance is used to calculate the "optical density".
The quantity of collagen used is as little as possible but sufficient to produce an irreversible reaction curve. Standard commercial collagen produced by Hormonchemie of Munich is used. Before the addition of the collagen the plasma is incubated for 10 minutes with the substance at 37° C.
From the measurements obtained an EC50 is determined by plotting a graph, and indicates a 50% change in the "optical density" in terms of the inhibition of aggregation.

A further test has as its target T2, Thromboxane (Homo sapiens, UniProt P21731).
T2 construct: endogenous in cells; host or cells: human platelets (platelet-rich plasma passed through Sepharose 2B)
T2 sequence (P21731 1-343): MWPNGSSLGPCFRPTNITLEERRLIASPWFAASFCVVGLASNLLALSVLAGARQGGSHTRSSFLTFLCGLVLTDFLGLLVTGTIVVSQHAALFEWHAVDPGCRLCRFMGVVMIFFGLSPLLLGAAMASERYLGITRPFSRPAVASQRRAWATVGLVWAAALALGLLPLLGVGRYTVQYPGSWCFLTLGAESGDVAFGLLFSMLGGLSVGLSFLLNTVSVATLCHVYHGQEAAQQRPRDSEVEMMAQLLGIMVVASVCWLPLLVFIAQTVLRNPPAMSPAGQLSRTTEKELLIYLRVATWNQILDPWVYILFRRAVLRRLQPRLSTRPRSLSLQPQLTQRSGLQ
In words: Thromboxane-antagonistic activity (displacement of 3H-labelled ligand on human platelets). The class given is binding. Particulars: human platelet suspension, 60 minutes at ambient temperature. As for the experimental part:
Thromboxane-antagonistic Activity
Venous human blood is anti-coagulated with 13 mM Na3 citrate and centrifuged for 10 minutes at 170×g. The supernatant platelet-rich plasma is passed through a Sepharose 2B column in order to remove the plasma proteins. Aliquots of the platelet suspension obtained are incubated with the test substance, the ligand (^3 H-labelled) and a marker (^14 C-labelled) for 60 minutes at ambient temperature and then centrifuged for 20 seconds at 10,000×g. The supernatant is removed and the pellet is dissolved in NaOH. The ^3 H activity in the supernatant corresponds to the free ligand, ^14 C gives the concentration of the marker. ^3 H in the pellet corresponds to the bound ligand whilst ^14 C is used to correct for the ligand in the extracellular space. After the process has been repeated, the displacement curve is determined from the binding values for different concentrations of the test substance and the IC50 is determined.
Background: Displacement assays read how much labelled ligand stays bound in the presence of the test substance.

Structures are written as SMILES.

Regarding `CC(C)CNC(=NS(N)(=O)=O)Nc1cccc(/C(=C\CCCC(=O)O)c2cccnc2)c1` [W, 5E-6-(3-(2-amidosulphonyl-3-(2-methylpropyl)guanidino)phenyl)-6-(3-pyridyl)hex-5-enoic acid], the IC50 stood at 2700 nM on thromboxane synthetase and 600 nM at Thromboxane. Also, in the test on thrombocyte aggregation, the EC50 amounted to 12000 nM.

For `CC(C)(C)CNC(=C[N+](=O)[O-])Nc1cccc(/C(=C\CCCC(=O)O)c2cccnc2)c1` [T, 5E-6-(3-(1-neopentylamino-2-nitro-ethyleneamino)phenyl)-6-(3-pyridyl)hex-5-enoic acid], the IC50 on thromboxane synthetase amounted to 290 nM; on Thromboxane, 280 nM. The EC50 with thrombocyte aggregation worked out at 9500 nM.

`CC(C)CCNC(Nc1cccc(/C(=C\CCCC(=O)O)c2cccnc2)c1)=C(C#N)C#N` [L, 5E-6-(3-(2,2-dicyano-1-(3-methylbutylamino)ethyleneamino)phenyl)-6-(3-pyridyl)hex-5-enoic acid]: the values for the IC50 at thromboxane synthetase and on Thromboxane were 31 nM and 15 nM, respectively. Also, in the test on thrombocyte aggregation, the EC50 is 1200 nM.

Turning to `CC(C)CCNC(=NC#N)Nc1cccc(/C(=C\CCCC(=O)O)c2cccnc2)c1` [Example I, 5E-6-(3-(2-cyano-3-(3-methylbutyl)guanidino)phenyl)-6-(3-pyridyl)hex-5-enoic acid], the IC50 on thromboxane synthetase turned out to be 3 nM; on Thromboxane, 27 nM. In addition, in the test on thrombocyte aggregation, the EC50 amounted to 690 nM.

With `CC(C)CNC(=NC#N)Nc1cccc(/C(=C\CCCC(=O)O)c2cccnc2)c1` [F, 5E-6-(3-(2-cyano-3-(2-methylpropyl)guanidino)phenyl)-6-(3-pyridyl)hex-5-enoic acid], the IC50 is 30 nM at thromboxane synthetase and 7 nM at Thromboxane. Besides, the EC50 with thrombocyte aggregation is 350 nM.

Usually IC50 stands for the concentration needed to halve the response being measured. Broadly, the EC50 is the concentration giving half of the maximal effect.
